# Test: Stability of FDC dosage forms (in words)
# Type: physicochemical
# Details: after 6 months storage at accelerated conditions; effect seems concentration dependent
structure (smiles),measurement,value
N=C(N)NCCC[C@H](N)C(=O)O [L-arginine],suppression of degradation of BI 1356 free base in FDC combinations with metformin HCl,able to suppress degradation

# — patent US20230338386A1, “DPP-IV INHIBITOR COMBINED WITH A FURTHER ANTIDIABETIC AGENT, TABLETS COMPRISING SUCH FORMULATIONS, THEIR USE AND PROCESS FOR THEIR PREPARATION” (Boehringer Ingelheim International GmbH, priority 2008, published 2023)
